# Laboratory results: patent publication US6689381B2, “Liposomal benzoquinazoline thymidylate synthase inhibitor formulations” (OSI Pharmaceuticals, Inc., priority 2000, dated 2004)
# Test system: human colon tumor xenograft model (HCT-8, thymidine kinase (TK)-/-)
# Assay: HCT-8 xenograft, NX1843 dose schedule study and combinations with 5-FU, NX211 and GW1843 (Table 27)
# Type: in vivo, nude mice
# Description: Female Nu/Nu mice (18-24 g, 10-14 weeks old) were obtained from Harlan Sprague Dawley, and housed in microisolator filtration racks and maintained with filtered acidified water and sterile lab chow ad libitum. […] Animals were allowed to acclimate to their new environment for 1 week prior to tumor cell implantation. Tumors were established by injecting harvested tumor cells in a single subcutaneous site on the flank of the mice in the axillary region. The tumors were grown until approximately 200+/−50 mm^3 in size. The animals were then sorted according to body weight, grouped four animals/cage, and tattooed on the tail for permanent identification. Groups consisting of 8 tumor-bearing mice each were administered weekly doses of experimental agents by IV bolus injection through the tail vein. Tumor volumes were determined with vernier caliper measurements taken at right angles using the formula, (L×W^2/2) and body weights, were collected twice weekly. Data was plotted as % change in body weight vs. time in days, and % tumor volume increase vs. days.
# T=(mean) time in days for treated group to reach cutoff size (2 grams)
# C=(mean) time in days for control group to reach cutoff size (2 grams)
# WC is the mean tumor weight of control group at time x
# Wt is mean tumor weight of treated group at time x
# % Regression=100 (Wo−Wi)/Wo; where Wo is the mean tumor weight for treated group at the initiation of treatment and Wi=the mean tumor weight for that group at time some time x after treatment.
# In addition to these dose groups the free drug was dosed at 100 mg/kg on days 1-5, and repeated for a second week.
compound,measurement,setting,value
"O=c1[nH]cc(F)c(=O)[nH]1 [Lot 5-FU, 5-fluorourcil, reference compound]",% TGI,"100 mg/kg, QD1, 8",72%
same,Cures,"100 mg/kg, QD1, 8",0
same,LCK,"100 mg/kg, QD1, 8",1.5
same,% Regression day 22,"100 mg/kg, QD1, 8, day 22",0%
same,log cell kill (LCK),"iv, NX1843 25 mg/kg d1,8, 15 mg/kg QD(1,3,5)×2 or 7.5 mg/kg QD(1-5)×2, GW1843 100 mg/kg d1-5 ×2, 5FU 100 mg/kg d1,8, NX211 6 mg/kg d1,8, combinations at same doses",1.5
